Assays:
PC3 cells = assay: NAMPT Cell Proliferation Assay; type: cell-based; settings: Homo sapiens, PC-3, 120 h, 5 days incubation, cell viability by Cell Titer Glo
Summary of the method: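 PC3 cells were plated at 500 cells/well in RPMI with 10% heat-inactivated FBS, left to attach overnight, then given compounds in 10-fold dilutions from 10 μM to 1×10^−5 μM. After 5 days at 37° C and 5% CO2, viability was read by luminescence and IC50s came from sigmoidal fits of percent inhibition.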

[1] = biological target: NAMPT (human, recombinant, C-terminally His-tagged) (Homo sapiens, UniProt P43490); assay: Time-Resolved Fluorescence Resonance Energy Transfer (TR-FRET) Binding Assay of NAMPT; settings: without substrates; 6.8 nM NAMPT, 200 nM probe, 3 hours equilibration
Chain of NAMPT (human, recombinant, C-terminally His-tagged) (P43490 whole entry): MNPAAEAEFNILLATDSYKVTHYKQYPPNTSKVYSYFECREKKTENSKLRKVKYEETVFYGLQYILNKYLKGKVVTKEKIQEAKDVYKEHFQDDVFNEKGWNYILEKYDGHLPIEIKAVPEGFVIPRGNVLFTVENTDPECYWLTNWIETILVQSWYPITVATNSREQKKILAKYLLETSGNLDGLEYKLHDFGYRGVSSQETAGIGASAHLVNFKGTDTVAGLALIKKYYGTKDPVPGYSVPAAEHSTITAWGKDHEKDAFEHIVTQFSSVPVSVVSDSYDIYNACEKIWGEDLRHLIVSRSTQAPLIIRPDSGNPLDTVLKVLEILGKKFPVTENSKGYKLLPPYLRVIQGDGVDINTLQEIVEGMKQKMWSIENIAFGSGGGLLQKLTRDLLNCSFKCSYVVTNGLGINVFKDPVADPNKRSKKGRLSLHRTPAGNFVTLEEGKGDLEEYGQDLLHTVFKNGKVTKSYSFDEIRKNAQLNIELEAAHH
Summary of the method: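 11-pt half-log compound series; final 6.8 nM NAMPT, 200 nM OG488 nicotinamide-competitive probe, 1 nM Tb-anti-His Ab, 2% DMSO, HEPES pH 7.5/NaCl/MgCl2/DTT/glycerol buffer. 3 h RT equilibration. Em520/Em495 ratio (Ex 337 nm), control-normalized, 4-parameter fit → IC50.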

NAMPT = NAMPT (Homo sapiens, UniProt P43490); assay: TR-FRET Binding Assay of NAMPT with PRPP; settings: with 200 μM PRPP and 2.5 mM ATP; 2 nM NAMPT, 2 nM probe, 16 hours equilibration
Chain of NAMPT (P43490 whole entry): as above
Summary of the method: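 TR-FRET probe-displacement binding with 2 nM NAMPT, 2 nM probe and 1 nM Tb-anti-His antibody, run in the presence of 200 μM PRPP and 2.5 mM ATP at 2% DMSO. Equilibrated 16 hours before reading so test compounds could undergo enzymatic modification.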

activated T cells = settings: Busso et al. 2008; cited from earlier work
[2] = system: collagen induced arthritis; settings: Busso et al. 2008; cited from earlier work
[3] = system: experimental autoimmune encephalomyelitis (EAE); settings: model of T-cell mediated autoimmune disorders, Bruzzone et al. 2009; cited from earlier work

Row | IC50 (PC3 cells) | IC50 [1] | IC50 (NAMPT) | SMILES | apoptosis of activated T cells (activated T cells) | proliferation of activated T cells (activated T cells) | efficacy in animal models of arthritis [2] | manifestations of experimental autoimmune encephalomyelitis [3]
1 | 1.06 nM | 26.1 nM | 0.538 nM | CC(C)(C)Cn1cc(-c2ccc(C(=O)NCc3ccn4ccnc4c3)o2)cn1 [Example 825, 5-[1-(2,2-dimethylpropyl)-1H-pyrazol-4-yl]-N-(imidazo[1,2-a]pyridin-7-ylmethyl)furan-2-carboxamide] |  |  |  | 
2 | 6.79 nM | 7.79 nM | 0.897 nM | O=C(NCc1cn2ccnc2cn1)c1ccc(C2CCN(C(=O)c3ccccc3F)CC2)cc1 [Example 826, 4-[1-(2-fluorobenzoyl)piperidin-4-yl]-N-(imidazo[1,2-a]pyrazin-6-ylmethyl)benzamide] |  |  |  | 
3 |  |  |  | O=C(/C=C/c1cccnc1)NCCCCC1CCN(C(=O)c2ccccc2)CC1 [FK866] | induce apoptosis | selectively block proliferation | efficacious | ameliorated the manifestations

Source: patent publication US9187472B2 (AbbVie Inc., priority 2012, dated 2015)
